Molecular target: T1, histamine H4 receptor (Homo sapiens, UniProt Q9H3N8)
T1 construct: expressed in transfected cells; host or cells: CHO cells (membranes)
Assay: H4 binding ([3H]-Histamine competition binding on CHO cell membranes)
Conditions: [3H]-Histamine 3 nM, membranes of CHO cells expressing the histamine H4 receptor; Ki calculated from IC50 by Cheng-Prussoff
Experimental: Cell pellets from CHO cells expressing the histamine H4 receptor were homogenised in ice-cold 50 mM Tris-HCl/0.5 mM CaCl2 buffer containing a protease inhibitor cocktail (Roche®, United Kingdom) using a ground glass homogeniser. Homogenates were centrifuged at 48000 g for 30 min at 4° C. The membrane pellet was resuspended in fresh buffer and the centrifugation step was repeated as described above. The membrane pellet was resuspended in 50 mM Tris-HCl in the same volume as the original cell pellet.
The reaction was terminated by rapid filtration through 0.5% polyethylenimine-soaked Unifilter GF/B plates (Packard) followed by three washes with 1 ml ice-cold 50 mM Tris-HCl. Filters were dried for 45 min at 45° C. and bound radiolabel was determined using scintillation counting techniques. Non-specific binding was defined with 5 μM clobenpropit.

Row | Ki | SMILES
1 | 91 nM | CN1C[C@@H]2CN(C(=O)c3nc4ccccc4[nH]3)C[C@@H]2C1 [Example 1, 2-{[(3aR,6aS)5-Methylhexahydropyrrolo[3,4-c]pyrrol-2(1H)-yl]carbonyl}-1H-benzimidazole]
2 | 82 nM | CN1C[C@@H]2CN(C(=O)c3nc4cc(F)ccc4[nH]3)C[C@@H]2C1 [Example 3, 5-Fluoro-2-{[(3aR,6aS)-5-methylhexahydropyrrolo[3,4-c]pyrrol-2(1H)-yl]carbonyl}-1H-benzimidazole]
3 | 16 nM | CN1C[C@@H]2CN(C(=O)c3cc4cc(Cl)ccc4[nH]3)C[C@@H]2C1 [Example 7, 5-Chloro-2-{[(3aR,6aS)-5-methylhexahydropyrrolo[3,4-c]pyrrol-2(1H)-yl]carbonyl}-1H-indole]
4 | 28 nM | CN1C[C@@H]2CN(C(=O)c3cc4cc(O)ccc4[nH]3)C[C@@H]2C1 [Example 15, 2-{[(3aR,6aS)-5-Methylhexahydropyrrolo[3,4-c]pyrrol-2(1H)-yl]carbonyl}-1H-indol-5-ol]
5 | 20 nM | CN1C[C@@H]2CN(C(=O)c3cc4cc(F)ccc4[nH]3)C[C@@H]2C1 [Example 16, 5-Fluoro-2-{[(3aR,6aS)-5-methylhexahydropyrrolo[3,4-c]pyrrol-2(1H)-yl]carbonyl}-1H-indole]
6 | 84 nM | Cc1ccc2[nH]c(C(=O)N3C[C@H]4CN(C)C[C@H]4C3)cc2c1 [Example 17, 5-Methyl-2-{[(3aR,6aS)-5-methylhexahydropyrrolo[3,4-c]pyrrol-2(1H)-yl]carbonyl}-1H-indole]
7 | 43 nM | CN1C[C@@H]2CN(C(=O)c3cc4cc(Br)ccc4[nH]3)C[C@@H]2C1 [Example 21, 5-Bromo-2-{[(3aR,6aS)-5-methylhexahydropyrrolo[3,4-c]pyrrol-2(1H)-yl]carbonyl}-1H-indole]
8 | 20 nM | CN1C[C@@H]2CN(C(=O)c3cc4cccc(F)c4[nH]3)C[C@@H]2C1 [Example 22, 7-Fluoro-2-{[(3aR,6aS)-5-methylhexahydropyrrolo[3,4-c]pyrrol-2(1H)-yl]carbonyl}-1H-indole]
9 | 67 nM | CN1C[C@@H]2CN(C(=O)c3nc4ccc(F)c(F)c4[nH]3)C[C@@H]2C1 [Example 25, 6,7-Difluoro-2-{[(3aR,6aS)-5-methylhexahydropyrrolo[3,4-c]pyrrol-2(1H)-yl]carbonyl}-1H-benzimidazole]
10 | 110 nM | Cc1cccc2nc(C(=O)N3C[C@H]4CN(C)C[C@H]4C3)[nH]c12 [Example 26, 7-Methyl-2-{[(3aR,6aS)-5-methylhexahydropyrrolo[3,4-c]pyrrol-2(1H)-yl]carbonyl}-1H-benzimidazole]
11 | 117 nM | CN1C[C@@H]2CN(C(=O)c3nc4cc(F)c(F)cc4[nH]3)C[C@@H]2C1 [Example 27, 5,6-Difluoro-2-{[(3aR,6aS)-5-methylhexahydropyrrolo[3,4-c]pyrrol-2(1H)-yl]carbonyl}-1H-benzimidazole]
12 | 53 nM | Cc1c(F)ccc2nc(C(=O)N3C[C@H]4CN(C)C[C@H]4C3)[nH]c12 [Example 41, 5-fluoro-4-methyl-2-{[(3aR,6aS)-5-methylhexahydropyrrolo [3,4-c]pyrrol-2(1H)-yl]carbonyl}-1H-benzimidazole]
13 | 91 nM | Cc1c(Cl)ccc2[nH]c(C(=O)N3C[C@H]4CN(C)C[C@H]4C3)nc12 [Example 48, 5-Chloro-4-methyl-2-{[(3aR,6aS)-5-methylhexahydropyrrolo[3,4-c]pyrrol-2(1H)-yl]carbonyl}-1H-benzimidazole]
14 | 100 nM | CN1C[C@@H]2CN(C(=O)c3nc4c(F)c(F)c(F)cc4[nH]3)C[C@@H]2C1 [Example 58, 4,5,6-Trifluoro-2-{[(3aR,6aS)-5-methylhexahydropyrrolo [3,4-c]pyrrol-2(1H)-yl]carbonyl}-1H-benzimidazole]
15 | 7 nM | CN1C[C@@H]2CN(C(=N)c3nc4cc(F)c(F)cc4[nH]3)C[C@@H]2C1 [Example 59, 1-(5,6-Difluoro-1H-benzimidazol-2-yl)-1-[(3aR,6aS)-5-methylhexahydropyrrolo[3,4-c]pyrrol-2(1H)-yl]methanimine]
16 | 6 nM | CN1C[C@@H]2CN(C(=N)c3nc4cc(F)ccc4[nH]3)C[C@@H]2C1 [Example 60, 1-(5-Fluoro-1H-benzimidazol-2-yl)-1-[(3aR,6aS)-5-methylhexahydropyrrolo[3,4-c]pyrrol-2(1H)-yl]methanimine]
17 | 24 nM | CN1C[C@@H]2CN(C(=N)c3nc4c(F)c(F)ccc4[nH]3)C[C@@H]2C1 [Example 61, 1-(4,5-Difluoro-1H-benzimidazol-2-yl)-1-[(3aR, 6aS)-5-methylhexahydropyrrolo[3,4-c]pyrrol-2(1H)-yl]methanimine]
18 | 7 nM | Cc1cccc2nc(C(=N)N3C[C@H]4CN(C)C[C@H]4C3)[nH]c12 [Example 62, 1-(4-Methyl-1H-benzimidazol-2-yl)-1-[(3aR, 6aS)-5-methylhexahydropyrrolo[3,4-c]pyrrol-2(1H)-yl]methanimine]
19 | 47 nM | CN1C[C@@H]2CN(C(=N)c3nc4cc(F)cc(F)c4[nH]3)C[C@@H]2C1 [Example 63, 1-(4,6-Difluoro-1H-benzimidazol-2-yl)-1-[(3aR, 6aS)-5-methylhexahydropyrrolo[3,4-c]pyrrol-2(1H)-yl]methanimine]
20 | 4 nM | Cc1c(F)ccc2nc(C(=N)N3C[C@H]4CN(C)C[C@H]4C3)[nH]c12 [Example 64, 1-(6-Fluoro-7-methyl-1H-benzimidazol-2-yl)-1-[(3aR, 6aS)-5-methylhexahydropyrrolo[3,4-c]pyrrol-2(1H)-yl]methanimine]
21 | 12 nM | Cc1c(Cl)ccc2nc(C(=N)N3C[C@H]4CN(C)C[C@H]4C3)[nH]c12 [Example 65, 1-(6-Chloro-7-methyl-1H-benzimidazol-2-yl)-1-[(3aR, 6aS)-5-methylhexahydropyrrolo[3,4-c]pyrrol-2(1H)-yl]methanimine]
22 | 24 nM | CN1C[C@@H]2CN(C(=N)c3nc4cccc(F)c4[nH]3)C[C@@H]2C1 [Example 66, 1-(7-Fluoro-1H-benzimidazol-2-yl)-1-[(3aR, 6aS)-5-methylhexahydropyrrolo[3,4-c]pyrrol-2(1H)-yl]methanimine]
23 | 60 nM | CN1C[C@@H]2CN(C(=N)c3nc4c(F)c(F)c(F)cc4[nH]3)C[C@@H]2C1 [Example 67, 1-[(3aR, 6aS)-5-Methylhexahydropyrrolo[3,4-c]pyrrol-2(1H)-yl]-1-(4,5,6-trifluoro-1H-benzimidazol-2-yl)methanimine]
24 | 26 nM | CN1C[C@@H]2CN(C(=N)c3nc4cc(Cl)ccc4[nH]3)C[C@@H]2C1 [Example 68, 1-(5-Chloro-1H-benzimidazol-2-yl)-1-[(3aR, 6aS)-5-methylhexahydropyrrolo[3,4-c]pyrrol-2(1H)-yl]methanimine]
